SMILES strings stand for the structures.

Broadly, the IC50 is the concentration that inhibits the measured activity by half.

Chain of human plasma kallikrein (P03952 391-638 limits assumed): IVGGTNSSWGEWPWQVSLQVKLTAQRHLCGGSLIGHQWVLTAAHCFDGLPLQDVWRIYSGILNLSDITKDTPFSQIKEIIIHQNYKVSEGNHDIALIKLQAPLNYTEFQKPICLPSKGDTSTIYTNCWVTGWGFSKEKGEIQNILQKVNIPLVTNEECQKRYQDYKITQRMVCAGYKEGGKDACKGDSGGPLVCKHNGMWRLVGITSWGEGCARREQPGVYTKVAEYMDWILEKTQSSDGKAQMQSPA
Chain of human plasma kallikrein (P03952 20-390 partner limits assumed): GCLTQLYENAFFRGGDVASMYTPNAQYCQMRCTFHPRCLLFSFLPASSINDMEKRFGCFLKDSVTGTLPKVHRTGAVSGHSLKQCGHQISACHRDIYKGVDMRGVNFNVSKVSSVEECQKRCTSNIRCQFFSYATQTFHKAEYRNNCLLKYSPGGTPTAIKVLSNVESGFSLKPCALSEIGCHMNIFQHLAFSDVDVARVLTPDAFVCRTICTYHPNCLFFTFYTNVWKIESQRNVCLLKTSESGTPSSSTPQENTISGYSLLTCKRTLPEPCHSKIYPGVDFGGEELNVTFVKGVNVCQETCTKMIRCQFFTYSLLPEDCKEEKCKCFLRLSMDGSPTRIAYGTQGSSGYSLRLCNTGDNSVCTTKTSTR

The experiment has as its target human plasma kallikrein (Homo sapiens, UniProt P03952). Put plainly: Kallikrein inhibition FLINT assay with quenched AMC peptide substrate Z-Gly-Pro-Arg-AMC (end point EP or kinetic KIN reads). The experiment is classed as biochemical. Particulars: kinetic reads at 5 min intervals over 30 min; read-out: Kallikrein (KIN) IC50. As for the experimental part: A fluorescence intensity (FLINT) based assay was used to monitor inhibition of human plasma kallikrein.
The Kallikrein FLINT assay was used with the following Z-Gly-Pro-Arg-AMC assay buffer: 50 mM Tris, pH 7.5, 100 mM NaCl, 5 mM CaCl2, 0.1 mg/mL BSA, 0.03% CHAPS. Assay buffer was prepared by mixing all ingredients fresh. 2× Z-Gly-Pro-Arg-AMC peptide substrate was prepared by diluting 10 mM stock into 1× assay buffer for a 100 μM working concentration (50 μM final concentration).
Test compound(s) were run in an 11-point, 3-fold serial dilution with a final top compound concentration of 1 μM. Final DMSO in assay was 2%. Plasma kallikrein was pre-incubated for 30-minute with compound and then 50 μM substrate was added to initiate the reaction. The assay was run with either end point (EP) reads at 30 min or kinetic (KIN) reads at 5 min intervals over 30 minutes.
Percent inhibition (IC50) curves were generated per compound tested, and data was analyzed using a 4-parameter logistic fit using GeneData Screener. The relative fluorescence unit (RFU) values were normalized to percent inhibition using the following equation: % inhibition=((HC−LC)−(compound−LC)/(HC−LC))*100
An 11-point dose response curve for the test compound(s) was generated using GENDATA to determine IC50 value based on the following equation: Y=Bottom+(Top−Bottom)/(1+10^((log IC50−X)*HillSlope))
Results listed in columns with […] designation were measured using endpoint reads where a single fluorescence reading was measured for each well at a 30 min timepoint.
On to `[2H]C([2H])([2H])n1nccc1-c1cnn([C@@H](CCOC(F)F)c2ccc(-c3c(-n4cnnn4)ccc(Cl)c3F)c[n+]2[O-])c1` [Example P557], for which the IC50 turned out to be 0.21 µM.

For `COC(=O)Nc1ccc(-c2cnn(C(Cc3ccc(Cl)cc3)c3ccc(-c4cc(Cl)ccc4-n4cnnn4)c[n+]3[O-])c2)cc1` (stereo not drawn) [Example P92], the IC50 amounted to 0.0455 µM.

As for `NC(=O)c1scc(-c2cnn(C(CC3CC3)c3ccc(-c4c(-n5cnnn5)ccc(Cl)c4F)c[n+]3[O-])c2)c1F` (single isomer, unassigned) [Example P953], the IC50 came out at 0.0134 µM.

With `CCC(c1ccc(-c2c(-n3cc(C(F)(F)F)nn3)ccc(Cl)c2F)c[n+]1[O-])n1cc(-c2ccc(C(N)=O)c(F)c2)cn1` (single isomer, unassigned) [Example P883], the IC50 was determined as 0.103 µM.

Regarding `[O-][n+]1ccc(-c2cnn(C(Cc3ccc(Cl)cc3)c3ccc(-c4cc(Cl)ccc4-n4cnnn4)c[n+]3[O-])c2)cc1` (stereo not drawn) [Example P172], the 50% inhibitory concentration (IC50) was found to be 0.0162 µM.

For the molecule `COC(=O)NC(C)c1ccc(-c2cnn(C(Cc3ccccc3)c3ccc(-c4cc(Cl)ccc4-n4cnnn4)c[n+]3[O-])c2)cc1` (stereo not drawn) [Example P58], the IC50 is 0.0285 µM.

`[O-][n+]1cc(-c2cc(Cl)ccc2-n2cnnn2)ccc1C(Cc1ccc(Cl)cc1)n1cc(-c2ccnc(F)c2)cn1` (stereo not drawn) [Example P210]: the IC50 came to 0.0228 µM.

Regarding `COC(=O)Nc1ccc(-c2cnn(C(Cn3cccn3)c3ccc(-c4c(-n5cnnn5)ccc(Cl)c4F)c[n+]3[O-])c2)cc1` (single isomer, unassigned) [Example P272], the IC50 was found to be 0.0032 µM.

For the molecule `[O-][n+]1cc(-c2c(-n3cnnn3)ccc(Cl)c2F)ccc1C(CC1CC1)n1cc(-c2c[nH]nc2Cl)cn1` (stereo not drawn) [Example P938], the IC50 is 0.0069 µM.

Take `O=C(NC1CC1)c1ccc(-c2cnn(C(Cc3ccc(F)cc3)c3ccc(-c4c(-c5cnco5)ccc(Cl)c4F)c[n+]3[O-])c2)cc1` (stereo not drawn) [Example P136]: the IC50 stood at 0.189 µM.

With `NC(=O)c1ccc(-c2cnn(C(CN3CCCC3=O)c3ccc(-c4c(-n5cc(C(F)(F)F)nn5)ccc(Cl)c4F)c[n+]3[O-])c2)cc1F` (single isomer, unassigned) [Example P936], the IC50 stood at 0.397 µM.

Consider `Nc1ccc(-c2cnn(C(Cn3cc(F)cn3)c3ccc(-c4c(-n5cnnn5)ccc(Cl)c4F)c[n+]3[O-])c2)c(F)n1` (stereo not drawn) [Example P281], for which the IC50 stood at 0.0026 µM.

On to `NC(=O)c1ccc(-c2cnn(C(Cc3ccn(C(F)F)n3)c3ccc(-c4c(-n5cnnn5)ccc(Cl)c4F)c[n+]3[O-])c2)cc1F` (single isomer, unassigned) [Example P932], for which the IC50 came to 0.027 µM.

Turning to `[O-][n+]1cc(-c2c(-n3cnnn3)ccc(Cl)c2F)ccc1C(CCOC(F)(F)F)n1cc(-c2ccncn2)cn1` (stereo not drawn) [Example P366], the IC50 came to 0.151 µM.

Consider `[O-][n+]1cc(-c2c(-n3cnnn3)ccc(Cl)c2F)ccc1C(Cn1ccc(C2CCOCC2)n1)n1cc(-c2ccnc(C(F)(F)F)c2)cn1` (stereo not drawn) [Example P419], for which the IC50 amounted to 0.0363 µM.

With `CCC(c1cc(OC)c(-c2cc(Cl)ccc2-n2cc(C(F)(F)F)nn2)c[n+]1[O-])n1cc(-c2ccc(C(N)=O)c(F)c2)cn1` (single isomer, unassigned) [Example P877], the IC50 was 0.22 µM.

On to `COCc1ccn(CC(c2ccc(-c3c(-n4cnnn4)ccc(Cl)c3F)c[n+]2[O-])n2cc(-c3ccnc(C(F)(F)F)c3)cn2)n1` (single isomer, unassigned) [Example P441], for which the IC50 was 0.0032 µM.

In the case of `COCC[C@H](c1ccc(-c2c(-n3cnnn3)ccc(Cl)c2F)c[n+]1[O-])n1cc(-c2c(Cl)cnn2C(F)F)cn1` [Example P623], the IC50 was 0.217 µM.

For the molecule `[2H]C([2H])([2H])OC([2H])([2H])CC(c1ccc(-c2c(-n3cc(C(F)(F)F)nn3)ccc(Cl)c2F)c[n+]1[O-])n1cc(-c2ccc(C(N)=O)c(F)c2)cn1` (single isomer, unassigned) [Example P913], the IC50 was determined as 0.0072 µM.

As to `COCc1ccnn1CC(c1ccc(-c2c(-n3cnnn3)ccc(Cl)c2F)c[n+]1[O-])n1cc(-c2ccc(N)nc2F)cn1` (stereo not drawn) [Example P489], the IC50 came out at 0.0579 µM.

Regarding `CCC(c1cc(OC)c(-c2cc(Cl)ccc2-n2cc(C(F)(F)F)nn2)c[n+]1[O-])n1cc(-c2ccc(C(N)=O)c(F)c2)cn1` (single isomer, unassigned) [Example P878], the IC50 was determined as 0.0027 µM.

`COCC[C@H](c1ccc(-c2c(-n3cnnn3)ccc(Cl)c2F)c[n+]1[O-])n1cc(-c2cc(C(F)(F)F)nn2C)cn1` [Example P619]: the IC50 stood at 0.0893 µM.

For `COC(=O)Nc1ccc(-c2cnn(C(CC3CC3C(=O)N3CCCCC3)c3ccc(-c4c(-n5cnnn5)ccc(Cl)c4F)c[n+]3[O-])c2)cc1` (stereo not drawn) [Example P231], the half-maximal inhibitory concentration (IC50) was 0.366 µM.

As for `Cc1ncn(-c2cnn([C@H](CCOC(F)F)c3ccc(-c4c(-n5cc(C(F)(F)F)nn5)ccc(Cl)c4F)c[n+]3[O-])c2)n1` [Example P823], the IC50 is 0.566 µM.

With `Cn1cc(C[C@H](c2ccc(-c3c(-n4cc(Cl)nn4)ccc(Cl)c3F)c[n+]2[O-])n2cc(-c3ccnc(C(F)(F)F)c3)cn2)nn1` [Example P739], the IC50 came to 0.0228 µM.

`Cc1nc(N)ccc1-c1cnn(C(CCOC(F)F)c2ccc(-c3c(-n4cnnn4)ccc(Cl)c3F)c[n+]2[O-])c1` (single isomer, unassigned) [Example P343]: the IC50 turned out to be 0.767 µM.

Regarding `[O-][n+]1cc(F)c(-c2cnn(C(CC3CC3)c3ccc(-c4c(-n5cnnn5)ccc(Cl)c4F)c[n+]3[O-])c2)c(Cl)c1` (single isomer, unassigned) [Example P862], the IC50 came to 0.148 µM.

For the molecule `[2H]C([2H])([2H])Nc1ccc(-c2cnn(C(CCOC([2H])([2H])[2H])c3ccc(-c4c(-n5cnnn5)ccc(Cl)c4F)c[n+]3[O-])c2)cc1` (stereo not drawn) [Example P278], the IC50 turned out to be 0.11 µM.

As to `[O-][n+]1cc(-c2cc(Cl)ccc2-n2cnnn2)ccc1C(Cn1cccn1)n1cc(-c2ccnc(C3CC3)c2)cn1` (stereo not drawn) [Example P286], the IC50 stood at 0.023 µM.

For `Cc1nc(N)ccc1-c1cnn(C(CC2CC2)c2ccc(-c3c(-n4cnnn4)ccc(Cl)c3F)c[n+]2[O-])c1` (stereo not drawn) [Example P183], the IC50 came out at 0.186 µM.

`[2H]C([2H])([2H])OC([2H])([2H])CC(c1ccc(-c2c(-n3cc(C(F)(F)F)nn3)ccc(Cl)c2F)c[n+]1[O-])n1cc(-c2ncnn2C)cn1` (single isomer, unassigned) [Example P864]: the IC50 stood at 0.549 µM.

With `Cn1ncc(C[C@@H](c2ccc(-c3c(-n4cc(Cl)nn4)ccc(Cl)c3F)c[n+]2[O-])n2cc(-c3ccnc(C(F)(F)F)c3)cn2)n1` [Example P715], the IC50 was determined as 0.83 µM.

On to `COc1ccc(C2CC2CC(c2ccc(-c3cc(Cl)ccc3-n3cnnn3)c[n+]2[O-])n2cc(-c3ccc(C(=O)O)cc3)cn2)cc1` (stereo not drawn) [Example P239], for which the IC50 amounted to 0.18 µM.

In the case of `CCOc1cc(C(CC2CC2)n2cc(-c3ccncc3)cn2)[n+]([O-])cc1-c1c(-n2cnnn2)ccc(Cl)c1F` (stereo not drawn) [Example P251], the IC50 is 0.0025 µM.

Regarding `[O-][n+]1cc(-c2c(-n3cnnn3)ccc(Cl)c2F)ccc1C(Cn1cc(F)cn1)n1cc(-c2ccnc(C(F)(F)F)c2)cn1` (stereo not drawn) [Example P332], the IC50 is 0.0595 µM.

Regarding `O=C(O)c1ccc(-c2cnn(C(CCc3ccccc3)c3ccc(-c4cc(Cl)ccc4-n4cnnn4)c[n+]3[O-])c2)cc1` (stereo not drawn) [Example P65], the IC50 was 0.721 µM.

Values taken from patent US11814364B2, “Pyridine N-oxide derivatives useful as factor XIa inhibitors” (Janssen Pharmaceutica NV, priority 2021, dated 2023).
